Test results reported in patent US10647690B2, “2,3-epoxy succinyl derivative, preparation method and use thereof” (Institute of Pharmacology and Toxicology Academy of …, priority 2016, dated 2020).
Where two headings read alike, the source gives them in different places.

Molecular target: T1, Cathepsin K (Homo sapiens, UniProt P43235)
T1 construct: purchased Biovision K150-100
T1 sequence (P43235 115-329): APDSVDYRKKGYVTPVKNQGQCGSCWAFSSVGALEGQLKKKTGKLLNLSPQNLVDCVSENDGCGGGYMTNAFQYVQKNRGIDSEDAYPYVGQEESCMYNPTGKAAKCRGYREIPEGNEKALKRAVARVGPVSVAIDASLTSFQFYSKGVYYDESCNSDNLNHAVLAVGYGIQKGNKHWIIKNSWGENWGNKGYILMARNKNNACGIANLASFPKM
Assay: Preliminary screening of Cathepsin K (Cathepsin K Inhibitor Screening Kit K150-100, Biovision)
Type: biochemical
Settings: relative inhibition rate vs 10 μM FF-FMK control
Procedure, shortened: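 Kit Cathepsin K enzyme was preincubated with compound for 15 min at 25 °C; the compound working solutions were 100 μM and 10 μM in 10% DMSO buffer, in duplicate. After fluorogenic substrate addition, fluorescence (ex 400/em 505 nm) was read continuously for 120 min at 37 °C. Inhibition % came from slopes versus the enzyme control and a 10 μM FF-FMK control.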

[1] = 1 μM compound, replicate 1, read-out: Inhibition % (1 μM) replicate 1
[2] = 1 μM compound, replicate 2, read-out: Inhibition % (1 μM) replicate 2
[3] = 10 μM compound, replicate 1, read-out: Inhibition % (10 μM) replicate 1
[4] = 10 μM compound, replicate 2, read-out: Inhibition % (10 μM) replicate 2

| SMILES | inhibition at 1 µM [1] | inhibition at 1 µM [2] | inhibition at 10 µM [3] | inhibition at 10 µM [4] | Inhibition % (1 μM) replicate 1 (1 μM compound, replicate 1) | Inhibition % (1 μM) replicate 2 (1 μM compound, replicate 2) | Inhibition % (10 μM) replicate 1 (10 μM compound, replicate 1) | Inhibition % (10 μM) replicate 2 (10 μM compound, replicate 2) |
| --- | --- | --- | --- | --- | --- | --- | --- | --- |
| CCCCCCNC(=O)[C@H](CCSC)NC(=O)[C@H]1O[C@@H]1C(=O)OCC [Compound 5, (2s, 3s)-2-ethoxycarbonyl-3-[2-[(s)-4-methylthio-1-carbonyl-1-(hexylamino)butane]formylamino]epoxysuccinic acid] | 90.9% | 89.5% | 91.3% | 95.7% |  |  |  |  |
| CCOC(=O)[C@H]1O[C@@H]1C(=O)N[C@@H](CCSC)C(=O)NCCCc1ccccc1 [Compound 8, (2s, 3s)-2-ethoxycarbonyl-3-[2-[(s)-4-methylthio-1-carbonyl-1-(3-phenylpropylamino)butane]formylamino]epoxysuccinic acid] | 80.5% | 78.9% | 96.9% | 94.1% |  |  |  |  |
| CCOC(=O)[C@H]1O[C@@H]1C(=O)N[C@@H](CCSC)C(=O)N1CCC(c2ccccc2)CC1 [Compound 13, (2s, 3s)-2-ethoxycarbonyl-3-[2-[(s)-4-methylthio-1-carbonyl-1-(phenylpiperidinyl)butane]formylamino]epoxysuccinic acid] | 99.7% | 98.9% | 108% | 106% |  |  |  |  |
| CCOC(=O)[C@H]1O[C@@H]1C(=O)N[C@@H](CCSC)C(=O)NCCc1cccc(F)c1 [Compound 34, (2s, 3s)-2-ethoxycarbonyl-3-[2-[(s)-4-methylthio-1-carbonyl-1-(3-fluorophenylethylamino)butane]formylamino]epoxysuccinic acid] | 88.6% | 90.8% | 94.4% | 95.7% |  |  |  |  |
| CCOC(=O)[C@H]1O[C@@H]1C(=O)N[C@@H](CCSC)C(=O)NC(CC)CC [Compound 39, (2s, 3s)-2-ethoxycarbonyl-3-[2-[(s)-4-methylthio-1-carbonyl-1-(1-ethylpropylamino)butane]formylamino]epoxysuccinic acid] | 81.5% | 85.2% | 97.3% | 99.5% |  |  |  |  |
| CCOC(=O)[C@H]1O[C@@H]1C(=O)N[C@@H](CCSC)C(=O)NCCCCc1ccccc1 [Compound 40, (2s, 3s)-2-ethoxycarbonyl-3-[2-[(s)-4-methylthio-1-carbonyl-1-(4-phenylbutylamino)butane]formylamino]epoxysuccinic acid] | 85.5% | 89.1% | 91.1% | 94.9% |  |  |  |  |
| CCOC(=O)[C@H]1O[C@@H]1C(=O)N[C@@H](CC(C)C)C(=O)NCCC(C)C [zxy-37, E64d, reference compound] |  |  |  |  | 85.73% | 87.75% | 90.96% | 98.34% |
